Assay type in all cases: cell-based
For assay [1], the system named is canonical Wnt signaling. The assay is described as follows: ST-Luc (SuperTOPFlash) Luciferase assay in HEK293 cells, 30% Wnt3a-CM. Conditions: Homo sapiens, HEK293; 10 μM compound, 30% Wnt3a-CM, 24 h; relative to DMSO control. How it is done:
Inhibition of Wnt signaling by compound No. 1 was quantified in vitro using a Luciferase assay in HEK293 cells transiently transfected with SuperTOPFlash plasmid (ST-Luc) (Veeman M T et al., Curr. Biol. 13: 680-685, 2003) at concentrations from 0.1-10 μM. HEK293 cells were purchased from ATCC (American Type Culture Collection) and maintained according to suppliers recommendations.
Transfection was performed using 80000 HEK293 cells seeded in 48-well plates coated with poly-L lysine. After 24 hours, 0.25 μg total plasmid DNA (0.23 μg SuperTOPFlash+0.02 μg pRL-TK (Renilla)—Promega) and 0.75 μl FuGENE6 (Roche) was combined in a total volume in 25 μl Opti-MEM® (Invitrogen) as described by the manufacturer (Roche). The transfection mixture was added to the plated cells and media were changed after 24 hours.
The Luciferase assay was performed by incubating transfected cells for 24 hours with various concentrations of compound No. 1 in 30% Wnt3a-CM (Wnt3a containing conditioned medium from L Wnt3a cells was harvested as described by ATCC). All treated reporter cells were finally lysed and the firefly luciferase and Renilla activities were measured on a 20/20n Luminometer (Turner BioSystems) as described in the Dual-Glo™ Luciferase Assay System Technical Manual (Promega).
HEK293 cells were transfected, grown and assayed as described in Example 22. 24 hours after seeding, the cells were incubated for an additional 24 hours with 10 μM concentrations of compounds in 30% Wnt3a-CM.
The percent activities shown in Table 3 are calculated relative to DMSO as a control. Some values shown are averages of multiple measurements. Compound XAV939 (Novartis; Huang et al., Nature (2009), 461, pp. 614-20) which is used as a positive control, has an activity of 7%.

Assay [2] concerns canonical Wnt signaling. The assay is described as follows: IC50 in STF/REN HEK293 cells, 50% Wnt3a-CM. The following applies: Homo sapiens; STF/REN HEK293, 50% Wnt3a-CM, 24 h. As for the experimental part: IC50 values were calculated using STF/REN HEK293 cells prepared essentially according to Example 22. Briefly, HEK293 cells (80,000 cells per well) were seeded in 48-well plates coated with poly-L lysine. 24 hours after seeding, the cells were incubated for an additional 24 hours with various compound concentrations in 50% Wnt3a-CM. After compound exposure, the cells were lysed and the firefly luciferase and Renilla activities were measured on a 20/20n Luminometer (Turner BioSystems) as described in the Dual-Glo™ Luciferase Assay System Technical Manual (Promega).
(§1) XLfit (idbs) was used to determine the IC50 and GI50 values in inhibition experiments. The data were fit to the following formulae:
IC50: Langmuir Binding Isotherm: fit=((A+(B*x))+(((C−B)*(1−exp((−1*D)*x)))/D)) res=(y−fit)

Assay [3] relates to SW480 colon carcinoma cells. The assay is described as follows: MTS cell proliferation assay, Table 5. Conditions: Homo sapiens; SW480, 10 μM, 72 h; relative to DMSO control; read-out: Cell proliferation (%) for test compounds. How it is done:
For the experiment giving the results shown in Table 5, cells (3000 per well) were seeded on 96 well plates (eight replicates per treatment). After 24 hours, and daily thereafter, cell culture medium (including 10% FBS) was mixed with 10 μM compounds or with 0.1% DMSO vehicle and then added to the wells. Sixteen wells of seeded control cells, defining incubation time zero (t0=24 hour after cell seeding), were incubated with 20 μl substrate in 100 μl phenol free D-MEM (Invitrogen) for 2 hours, as described in the CellTiter 96® AQueous Non-Radioactive Cell Proliferation Assay protocol (Promega). The A490 was recorded. The treatment samples were likewise measured after 72 hours.
The quantity of reduced MTS product (as measured by the absorbance at 490 nm) is directly proportional to the number of living cells in the culture and thus allows a direct comparison of cell proliferation in each case. DMSO was used as a control. The following formula was used to determine single well relative A490 sample values: ((Sample A490−Average A490t0)*100)/(Average A490t720.1% DMSO control−Average A490t0)
The proliferation of SW480 cells (in percent) is the A492 value relative to that of the DMSO control.

The test system of another assay is SW480 cells. The assay is described as follows: Growth inhibition (GI50) MTS assay. Conditions: Homo sapiens, 72 h. As for the experimental part:
Growth inhibition curves were prepared using SW480 cells, prepared essentially according to Example 23. SW480 cells (3000 cells per well) were seeded on 96 well plates (eight replicates per treatment). 24 hours later and daily thereafter, cell culture media (including 10% FBS) was mixed with various compound concentrations or with 0.1% DMSO vehicle and then added to the wells. Sixteen wells of seeded control cells, defining incubation time zero (to =24 hour after cell seeding), were incubated with […] substrate in 100 μl of phenol-free D-MEM (Invitrogen) for 2 hours, as described in the CellTiter 96® AQueous Non-Radioactive Cell Proliferation Assay protocol (MTS, Promega). The A490 was recorded. The treatment samples were likewise measured after 72 hours. The following formula was used to determine the single well relative A490 sample values: ((Sample A490−Average A490t0)*100)/(Average A490t720.1% DMSO control−Average A490t0)
as §1
GI50: Eadie-Hofstee Model: fit=(A+((B*x)/((C*(D+1))+x))) inv=(((y−A)*(C*(D+1)))/((A+B)−y)) res=(y−fit)
(Tetrazolium dyes change colour on reduction, which living cells bring about.)

Molecules are shown by their SMILES.

Broadly, the IC50 is the concentration at which inhibition is half-maximal. Read a high IC50 as a need for much substance. Consider `Cc1ccc(-c2nnc([C@@H](C)Sc3nnc(-c4ccncc4)n3-c3ccccc3Cl)o2)cc1` [99b], for which the figures for the activity at 10 µM (in the assay with canonical Wnt signaling [1]; in assay [3]) were 12% and 72%, respectively. Besides, half-maximal inhibition in the assay with canonical Wnt signaling [2] (IC50) was put at 163 nM.

The GI50 is the concentration giving 50% growth inhibition. A high value points to less potent growth inhibition. With `COc1ccc(-n2c(SCc3nc(-c4ccc(Cl)cc4)no3)nnc2-c2ccncc2)cc1` [Compound 5], in the assay with canonical Wnt signaling [1], the activity at 10 µM was determined as 10%. Further, the GI50 with SW480 cells is 10000 nM. The compound further displayed a concentration for half-maximal inhibition (IC50) in the assay on canonical Wnt signaling [2] of 950 nM.

In the case of `Cc1ccc(-c2noc(CSc3nnc(-c4ccncc4)n3-c3ccccc3C)n2)cc1` [Compound 7], the activity at 10 µM in the assay with canonical Wnt signaling [1] was 5.6%. Moreover, the GI50 in the assay on SW480 cells came out at 7500 nM. The same compound gave a concentration for half-maximal inhibition (IC50) in the assay on canonical Wnt signaling [2] of 880 nM.

For `COc1ccc(-n2c(SCc3nc(-c4ccc(C)cc4)no3)nnc2-c2ccccc2OC)cc1` [Compound 8], the activity at 10 µM in the assay with canonical Wnt signaling [1] was 28.5%. Also, the GI50 in the assay with SW480 cells came out at 10500 nM. In the assay on canonical Wnt signaling [2], this compound registered a concentration for half-maximal inhibition (IC50) of 2100 nM.

Regarding `Cc1ccc(-c2noc(CSc3nnc(-c4ccncc4)n3-c3cccc(Cl)c3C)n2)cc1` [Compound 10], in the assay with canonical Wnt signaling [1], the activity at 10 µM stood at 10.1%. In the assay on SW480 cells, it took 13500 nM to inhibit growth by half (GI50). The same compound registered a half-maximal inhibitory concentration (IC50) with canonical Wnt signaling [2] of 3300 nM.

With `COc1ccc(-n2c(SCc3nnc(-c4ccccc4)o3)nnc2-c2ccncc2)cc1` [Compound 11], the activity at 10 µM with canonical Wnt signaling [1] is 9.3%. Besides, the 50% growth inhibitory concentration (GI50) with SW480 cells was above 25000 nM. For the same compound, the IC50 with canonical Wnt signaling [2] was 1500 nM.

For the compound `Cc1ccc(-c2nnc(CSc3nnc(-c4ccc(Cl)nc4)n3-c3ccccc3Cl)o2)cc1` [Compound 108], the values for the activity at 10 µM (with canonical Wnt signaling [1]; in assay [3]) were 0.8% and 42%, respectively. Moreover, the IC50 in the assay with canonical Wnt signaling [2] was 218 nM.

For the compound `Cc1ccc(-c2nnc(CSc3nnc(-c4ccncc4)n3-c3ccccc3Cl)o2)cn1` [compound 68], the activity at 10 µM in the assay with canonical Wnt signaling [1] was determined as 17%; in assay [3], 60%. Moreover, the IC50 with canonical Wnt signaling [2] turned out to be 381 nM.

Take `Cc1ccc(-c2nnc(CSc3nnc(-c4ccncc4)n3-c3ccccc3Cl)o2)c(Br)c1` [compound 72]: the figures for the activity at 10 µM (in the assay on canonical Wnt signaling [1]; in assay [3]) were 20% and 55%, respectively. Further, the IC50 with canonical Wnt signaling [2] was determined as 551 nM.

As to `Cc1ccc(-c2nnc(CSc3nnc(-c4ccncn4)n3-c3ccccc3Cl)o2)cc1` [compound 105, 4-(5-((5-p-tolyl-1,3,4-oxadiazol-2-yl)methylthio)-4-(2-chlorophenyl)-4H-1,2,4-triazol-3-yl)pyrimidine], the activity at 10 µM in the assay on canonical Wnt signaling [1] came out at 4.4%; in assay [3], 54%. In the assay with canonical Wnt signaling [2], this compound showed a concentration for half-maximal inhibition (IC50) of 29 nM.

As to `CCOc1ccc(-c2nnc(SCc3nnc(-c4ccc(C)cc4)o3)n2-c2ccccc2Cl)cc1` [compound 109, 3-((5-p-tolyl-1,3,4-oxadiazol-2-yl)methylthio)-4-(2-chlorophenyl)-5-(4-ethoxyphenyl)-4H-1,2,4-triazole], the activity at 10 µM was 0.6% in the assay with canonical Wnt signaling [1] and 33% in assay [3].

Consider `Cc1ccc(-c2nnc(CSc3nnc(-c4ccc(F)cc4F)n3-c3ccccc3Cl)o2)cc1` [compound 110, 3-((5-p-tolyl-1,3,4-oxadiazol-2-yl)methylthio)-4-(2-chlorophenyl)-5-(2,4-difluorophenyl)-4H-1,2,4-triazole], for which the activity at 10 µM in the assay on canonical Wnt signaling [1] was 2%; in assay [3], 50%. Also, in the assay on canonical Wnt signaling [2], the IC50 worked out at 872 nM.

Consider `Cc1ccc(-c2nnc(CSc3nnc(-c4ccc(Cl)cc4)n3-c3ccccc3Cl)o2)cc1` [compound 111, 3-((5-p-tolyl-1,3,4-oxadiazol-2-yl)methylthio)-4-(2-chlorophenyl)-5-(4-chlorophenyl)-4H-1,2,4-triazole], for which the activity at 10 µM came out at 0.7% with canonical Wnt signaling [1] and 44% in assay [3].

As for `Cc1ccc(-c2nnc(CSc3nnc(-c4ccc(Cl)cc4Cl)n3-c3ccccc3Cl)o2)cc1` [compound 112, 3-((5-p-tolyl-1,3,4-oxadiazol-2-yl)methylthio)-5-(2,4-dichlorophenyl)-4-(2-chlorophenyl)-4H-1,2,4-triazole], the activity at 10 µM with canonical Wnt signaling [1] came out at 0.3%; in assay [3], 39%. Further, half-maximal inhibition in the assay with canonical Wnt signaling [2] (IC50) required 688 nM.

As for `Clc1ccc(-c2nnc(CSc3nnc(-c4ccncc4)n3-c3ccccc3Cl)o2)cc1` [compound 113, 4-(5-((5-(4-chlorophenyl)-1,3,4-oxadiazol-2-yl)methylthio)-4-(2-chlorophenyl)-4H-1,2,4-triazol-3-yl)pyridine], the activity at 10 µM was found to be 4.9% in the assay on canonical Wnt signaling [1] and 56% in assay [3]. In addition, in the assay on canonical Wnt signaling [2], the concentration for half-maximal inhibition (IC50) was 59 nM.

Regarding `Clc1ccc(-c2nnc(CSc3nnc(-c4ccncc4)n3-c3ccccc3Cl)o2)c(Cl)c1` [compound 114, 4-(5-((5-(2,4-dichlorophenyl)-1,3,4-oxadiazol-2-yl)methylthio)-4-(2-chlorophenyl)-4H-1,2,4-triazol-3-yl)pyridine], the activity at 10 µM in the assay on canonical Wnt signaling [1] came to 4.2%; in assay [3], 69%. The midpoint of inhibition in the assay with canonical Wnt signaling [2], the IC50, lay at 795 nM.

Take `Cc1ccc(-c2nnc(CSc3nnc(-c4ccc(F)cc4)n3-c3ccccc3Cl)o2)cc1` [compound 115, 3-((5-p-tolyl-1,3,4-oxadiazol-2-yl)methylthio)-4-(2-chlorophenyl)-5-(4-fluorophenyl)-4H-1,2,4-triazole]: the activity at 10 µM with canonical Wnt signaling [1] turned out to be 5%; in assay [3] it was 60%.

For the compound `Cc1ccc(-c2nnc(CSc3nnc(-c4ccnc(O)c4)n3-c3ccccc3Cl)o2)cc1` [compound 116, 4-(5-((5-p-tolyl-1,3,4-oxadiazol-2-yl)methylthio)-4-(2-chlorophenyl)-4H-1,2,4-triazol-3-yl)pyridin-2-ol], the activity at 10 µM in the assay on canonical Wnt signaling [1] amounted to 7%; in assay [3], 70%. The half-maximal inhibitory concentration (IC50) with canonical Wnt signaling [2] stood at 262 nM.

Regarding `Clc1cc(Cl)cc(-c2nnc(CSc3nnc(-c4ccncc4)n3-c3ccccc3Cl)o2)c1` [compound 117, 4-(5-((5-(3,5-dichlorophenyl)-1,3,4-oxadiazol-2-yl)methylthio)-4-(2-chlorophenyl)-4H-1,2,4-triazol-3-yl)pyridine], the activity at 10 µM with canonical Wnt signaling [1] turned out to be 9%; in assay [3], 85%. Further, the IC50 in the assay on canonical Wnt signaling [2] was 834 nM.

Regarding `Clc1ccc(-c2nnc(CSc3nnc(-c4ccncc4)n3-c3ccccc3Cl)o2)cc1Cl` [compound 130, 4-(5-((5-(3,4-dichlorophenyl)-1,3,4-oxadiazol-2-yl)methylthio)-4-(2-chlorophenyl)-4H-1,2,4-triazol-3-yl)pyridine], the figures for the activity at 10 µM (with canonical Wnt signaling [1]; in assay [3]) were 9% and 72%, respectively. In addition, inhibition with canonical Wnt signaling [2] was half-maximal at 151 nM (IC50).

Turning to `Cc1ccc(-c2nnc(CSc3nnc(-c4ccc(Cl)c(Cl)c4)n3-c3ccccc3Cl)o2)cc1` [compound 131, 3-((5-p-tolyl-1,3,4-oxadiazol-2-yl)methylthio)-4-(2-chlorophenyl)-5-(3,4-dichlorophenyl)-4H-1,2,4-triazole], the activity at 10 µM in the assay on canonical Wnt signaling [1] was determined as 4%; in assay [3] it was 53%.

(Values after US8883827B2, “Azole derivatives as WTN pathway inhibitors” (Oslo University Hospital HF, priority 2009, dated 2014).)
